Assay [1] has as its system collagen-induced arthritis. Nature of the assay: Paw volume by plethysmometry in collagen-induced arthritis (CIA) (Experiment 2). The note with it: for Pr > F: 2x2 factorial analysis on swelling of the paw, PEA 30 mg/kg, ibuprofen 5 mg/kg, PEA*IBU = interaction (synergy). In kind it is in vivo, Female Lewis rats. The method, then:
(§1) Rheumatoid arthritis is a disease characterized by inflammatory pain, in which the involved joints present swelling, stiffness and often erosive processes. Female Lewis rats were maintained on a 12/12 hour light/dark cycle, at constant temperature and humidity and acclimated for 1 week, with free access to water and standard diet. […] Arthritis score, change in paw volume (mL), and change in body weight (g) were measured as indicators of inflammatory pain. Arthritis severity was measured every other day starting on day 25, using the following score: 0 = no sign of arthritis; 1 = swelling and/or redness of the paw or toe; 2 = two joints involved; 3 = more than two joints involved; and 4 = severe arthritis of the entire paw and toes. The arthritis index for each subject was calculated by adding the four scores of the individual paws. The change in paw volume compared to day 21 was assessed every two days by plethysmometry (Ugo Basile) starting from day 25. The change in weight was measured for each animal on day 21 and then every two days starting from day 25.
The chosen inflammatory pain indicators were analyzed via Generalized Linear Model (GLM) followed by post-hoc analysis based on Tukey-Kramer correction for multiple comparisons. […] All analyzes were performed using SAS software, version 9.4 (SAS Institute, Cary, NC, USA).

For assay [2], the system named is collagen-induced arthritis. The assay can be described thus: Arthritis severity score in collagen-induced arthritis (CIA) (Experiment 2). In kind it is in vivo, Female Lewis rats. The note with it: PEA 30 mg/kg; for Pr > F: 2x2 factor analysis on severity of arthritis, ibuprofen 5 mg/kg, PEA*IBU = interaction (synergy). How it is done:
as §1
(§2) The chosen inflammatory pain indicators were analyzed via Generalized Linear Model (GLM) followed by post-hoc analysis based on Tukey-Kramer correction for multiple comparisons. […] All analyzes were performed using SAS software, version 9.4 (SAS Institute, Cary, NC, USA). P value < 0.05 was considered significant.

Assay [3] relates to collagen-induced arthritis. Nature of the assay: Body weight change in collagen-induced arthritis (CIA) (Experiment 2). The note with it: PEA 30 mg/kg; for Pr > F: 2x2 factorial analysis on weight change, ibuprofen 5 mg/kg, PEA*IBU = interaction (synergy). In kind it is in vivo, Female Lewis rats. How it is done:
as §1, §2

The subject of assay [4] is inflammatory pain induced by sub-plantar injection of carrageenan. The assay can be described thus: Von Frey filaments, inflammatory pain induced by sub-plantar injection of carrageenan (Experiment 3). In kind it is in vivo, adult male Sprague-Dawley rats. How it is done: The experimental inflammatory pain model was induced through a sub-plantar injection of carrageenan (CAR) saline solution (0.1 mL of a 1% suspension of CAR in 0.85% saline). […] The PEA used in this experiment was in unprocessed (native) form. Von Frey filaments were used to evaluate pain, recording for each animal the mechanical tolerance threshold, i.e. the pressure (expressed in grams) endured before retracting the paw. The measurement took place using an analgesimeter (Ugo Basile, Comerio, Varese, Italy) and was conducted before the sub-plantar injection of the CAR and at the time of maximum damage (5 hours later).
The effect on pain was analyzed using Generalized Linear Model (GLM) followed by post-hoc analysis based on Tukey-Kramer correction for multiple comparisons. […] All analyses were performed using SAS software, version 9.4 (SAS Institute, Cary, NC, USA). P value < 0.05 was considered significant.

In the case of `CCCCCCCCCCCCCCCC(=O)NCCO` [PEA, N-palmitoylethanolamide], the “Pr > F” value is listed as 0,0002 in assay [1] (6° giorno di trattamento); <0,0001 in assay [1] (8° giorno di trattamento); <0,0001 in assay [1] (10° giorno di trattamento); <0,0001 in assay [2] (Giorno 33); <0,0001 in assay [2] (Giorno 35); <0,0001 in assay [3] (6° giorno di trattamento (G31)). Besides, the “Pr > F” value is on record as <0,0001 in assay [3] (8° giorno di trattamento (G33)); <0,0001 in assay [3] (10° giorno di trattamento (G35)); 0,0046 in assay [4] (2x2 factorial analysis on tolerance threshold (Von Frey), native PEA 100 mg/kg, ibuprofen 5 mg/kg, PEA*Ibu = interaction (synergy)). Besides, the “effect on paw volume increase” value in assay [1] (single administration of PEA 30 mg/kg or ibuprofen 5 mg/kg (not combined)) was “had no effect”. The “effect on arthritis score” value in assay [2] (day 31 up to end of study (day 35), oral from day 25, low-dose IBU 5 mg/kg, high-dose IBU 30 mg/kg) was “had no effect”. In assay [3] (from the 4th day of treatment (day 29) for the entire observation period, low-dose ibuprofen 5 mg/kg, high-dose IBU 30 mg/kg), the “effect on weight reduction induced by arthritis pain” value is on record as “neither PEA nor low-dose ibuprofen exerted any effect”. In assay [4] (single oral administration 30 minutes before carrageenan, measured 5 hours later, unprocessed (native) PEA 100 mg/kg and/or ibuprofen 5 mg/kg), the “mechanical tolerance threshold compared to the vehicle-treated group” value was “inactive dose”.

The values above are taken from patent publication EP4628074A1, “N-PALMITOYLETHANOLAMIDE FOR USE IN COMBINATION WITH A NON-STEROIDAL ANTI-INFLAMMATORY DRUG IN THE TREATMENT OF INFLAMMATORY PAIN” (priority 2024, dated 2025).
